Measured values published in patent publication US20210254272A1, “TEXTILES HAVING ANTIMICROBIAL PROPERTIES” (Livinguard AG, priority 2015, published 2021).

Test: Leaching test: 100 g fabric soaked in 10 liters stagnant distilled water, 3 days (72 hours)
Assay type: physicochemical
Settings: for Leaching of active ingredients: exhaust 80° C. 60 min, cured 180° C. 2 min, post wash
Method: The test procedure for leaching was as follows: 100 g (grams) of fabric as well as control fabrics were soaked in 10 liters of stagnant distilled water in a closed wide mouth jar. After 3 days (72 hours), the water samples were tested for leached substances as per standard analytical methods.
The test procedure for leaching was as follows: 100 g (grams) of fabric as well as control fabrics were soaked in 10 liters of stagnant distilled water in a closed wide mouth jar. After 3 days (72 hours), the water samples were tested for leached substances as per standard analytical methods. A weight of 100 g fabric was chosen because in the preferred embodiment of the water filter as described further below, each filter comprises a strip of fabric with 210 g/m^2, 3 meters long and 0.16 meters wide, which corresponds to 100 g of fabric.

CCCCCCCCCCCCCCCCCC[N+](C)(C)CCC[Si](OC)(OC)OC [Organosilane, dimethyloctadecyl[3-(trimethoxysilyl)propyl] ammonium chloride]
Leaching of active ingredients (in ppm) (0.2% each in mixture (o.w.f), exhaust 80° C., 60 min, curing 180° C., 2 min, unwashed): 7 ppm
Leaching of active ingredients (in ppm) (0.5% each in mixture (o.w.f), exhaust 80° C., 60 min, curing 180° C., 2 min, unwashed): 9 ppm
Leaching of active ingredients (in ppm) (1.0% each in mixture (o.w.f), exhaust 80° C., 60 min, curing 180° C., 2 min, unwashed): 17 ppm
Leeching in ppm (Exhaust + Wash + pad + Wash, exhaust 0.1% o.w.f. each in mixture, 1 gm/liter pad): 0.1 ppm
Leeching in ppm (Exhaust + Wash + pad + Wash, exhaust 0.1% o.w.f. each in mixture, 5 gm/liter pad): 0.2 ppm
Leeching in ppm (Exhaust + Wash + pad + Wash, exhaust 0.1% o.w.f. each in mixture, 10 gm/liter pad): 0.4 ppm
Leeching in ppm (Exhaust + Wash + pad + Wash, exhaust 0.25% o.w.f. each in mixture, 1 gm/liter pad): 1 ppm
Leeching in ppm (Exhaust + Wash + pad + Wash, exhaust 0.25% o.w.f. each in mixture, 5 gm/liter pad): 2 ppm
Leeching in ppm (Exhaust + Wash + pad + Wash, exhaust 0.25% o.w.f. each in mixture, 10 gm/liter pad): 5 ppm
Leeching in ppm (Exhaust + Wash + pad + Wash, exhaust 0.5 (% o.w.f) each in mixture, 1 gm/liter pad): 3 ppm
Leeching in ppm (Exhaust + Wash + pad + Wash, exhaust 0.5 (% o.w.f) each in mixture, 5 gm/liter pad): 7 ppm
Leeching in ppm (Exhaust + Wash + pad + Wash, exhaust 0.5 (% o.w.f) each in mixture, 10 gm/liter pad): 9 ppm
Leeching in ppm (Exhaust + Wash + pad + Wash, exhaust 1.0% o.w.f. each in mixture, 1 gm/liter pad): 9 ppm
Leeching in ppm (Exhaust + Wash + pad + Wash, exhaust 1.0% o.w.f. each in mixture, 5 gm/liter pad): 10 ppm
Leeching in ppm (Exhaust + Wash + pad + Wash, exhaust 1.0% o.w.f. each in mixture, 10 gm/liter pad): 15 ppm
Leeching in ppm (Exhaust + pad + Wash, exhaust 0.1% o.w.f. each in mixture, 1 gm/liter pad): 143 ppm
Leeching in ppm (Exhaust + pad + Wash, exhaust 0.1% o.w.f. each in mixture, 5 gm/liter pad): 238 ppm
Leeching in ppm (Exhaust + pad + Wash, exhaust 0.1% o.w.f. each in mixture, 10 gm/liter pad): 249 ppm
Leeching in ppm (Exhaust + pad + Wash, exhaust 0.25% o.w.f. each in mixture, 1 gm/liter pad): 265 ppm
Leeching in ppm (Exhaust + pad + Wash, exhaust 0.25% o.w.f. each in mixture, 5 gm/liter pad): 249 ppm
Leeching in ppm (Exhaust + pad + Wash, exhaust 0.25% o.w.f. each in mixture, 10 gm/liter pad): 523 ppm
Leeching in ppm (Exhaust + pad + Wash, exhaust 0.5 (% o.w.f) each in mixture, 1 gm/liter pad): 432 ppm
Leeching in ppm (Exhaust + pad + Wash, exhaust 0.5 (% o.w.f) each in mixture, 5 gm/liter pad): 587 ppm
Leeching in ppm (Exhaust + pad + Wash, exhaust 0.5 (% o.w.f) each in mixture, 10 gm/liter pad): 637 ppm
Leeching in ppm (Exhaust + pad + Wash, exhaust 1.0% o.w.f. each in mixture, 1 gm/liter pad): 536 ppm
Leeching in ppm (Exhaust + pad + Wash, exhaust 1.0% o.w.f. each in mixture, 5 gm/liter pad): 657 ppm
Leeching in ppm (Exhaust + pad + Wash, exhaust 1.0% o.w.f. each in mixture, 10 gm/liter pad): 856 ppm
Leeching in ppm (Exhaust + pad, exhaust 0.1% o.w.f. each in mixture, 1 gm/liter pad): 198 ppm
Leeching in ppm (Exhaust + pad, exhaust 0.1% o.w.f. each in mixture, 5 gm/liter pad): 275 ppm
Leeching in ppm (Exhaust + pad, exhaust 0.1% o.w.f. each in mixture, 10 gm/liter pad): 374 ppm
Leeching in ppm (Exhaust + pad, exhaust 0.25% o.w.f. each in mixture, 1 gm/liter pad): 315 ppm
Leeching in ppm (Exhaust + pad, exhaust 0.25% o.w.f. each in mixture, 5 gm/liter pad): 353 ppm
Leeching in ppm (Exhaust + pad, exhaust 0.25% o.w.f. each in mixture, 10 gm/liter pad): 356 ppm
Leeching in ppm (Exhaust + pad, exhaust 0.5 (% o.w.f) each in mixture, 1 gm/liter pad): 347 ppm
Leeching in ppm (Exhaust + pad, exhaust 0.5 (% o.w.f) each in mixture, 5 gm/liter pad): 462 ppm
Leeching in ppm (Exhaust + pad, exhaust 0.5 (% o.w.f) each in mixture, 10 gm/liter pad): 823 ppm
Leeching in ppm (Exhaust + pad, exhaust 1.0% o.w.f. each in mixture, 1 gm/liter pad): 584 ppm
Leeching in ppm (Exhaust + pad, exhaust 1.0% o.w.f. each in mixture, 5 gm/liter pad): 782 ppm
Leeching in ppm (Exhaust + pad, exhaust 1.0% o.w.f. each in mixture, 10 gm/liter pad): 1243 ppm
Leeching in ppm (Exhaust +Wash + pad, exhaust 0.1% o.w.f. each in mixture, 1 gm/liter pad): 87 ppm
Leeching in ppm (Exhaust +Wash + pad, exhaust 0.1% o.w.f. each in mixture, 5 gm/liter pad): 158 ppm
Leeching in ppm (Exhaust +Wash + pad, exhaust 0.1% o.w.f. each in mixture, 10 gm/liter pad): 231 ppm
Leeching in ppm (Exhaust +Wash + pad, exhaust 0.25% o.w.f. each in mixture, 1 gm/liter pad): 186 ppm
Leeching in ppm (Exhaust +Wash + pad, exhaust 0.25% o.w.f. each in mixture, 5 gm/liter pad): 214 ppm
Leeching in ppm (Exhaust +Wash + pad, exhaust 0.25% o.w.f. each in mixture, 10 gm/liter pad): 327 ppm
Leeching in ppm (Exhaust +Wash + pad, exhaust 0.5 (% o.w.f) each in mixture, 1 gm/liter pad): 375 ppm
Leeching in ppm (Exhaust +Wash + pad, exhaust 0.5 (% o.w.f) each in mixture, 5 gm/liter pad): 432 ppm
Leeching in ppm (Exhaust +Wash + pad, exhaust 0.5 (% o.w.f) each in mixture, 10 gm/liter pad): 564 ppm
Leeching in ppm (Exhaust +Wash + pad, exhaust 1.0% o.w.f. each in mixture, 1 gm/liter pad): 495 ppm
Leeching in ppm (Exhaust +Wash + pad, exhaust 1.0% o.w.f. each in mixture, 5 gm/liter pad): 534 ppm
Leeching in ppm (Exhaust +Wash + pad, exhaust 1.0% o.w.f. each in mixture, 10 gm/liter pad): 645 ppm
Leaching of active ingredients (in ppm) (exhaust 60° C., solution dosage 1% o.w.f, process time 60 min): 23 ppm
Leaching of active ingredients (in ppm) (exhaust 60° C., solution dosage 1% o.w.f, process time 90 min): 14 ppm
Leaching of active ingredients (in ppm) (exhaust 60° C., solution dosage 1% o.w.f, process time 120 min): 14 ppm
Leaching of active ingredients (in ppm) (exhaust 60° C., solution dosage 1% o.w.f, process time 180 min): 12 ppm
Leaching of active ingredients (in ppm) (exhaust 60° C., solution dosage 1% o.w.f, process time 240 min): 14 ppm
Leaching of active ingredients (mixture 0.2% o.w.f. each): 0.2 ppm
Leaching of active ingredients (mixture 0.5% o.w.f. each): 0.3 ppm
Leaching of active ingredients (mixture 1% o.w.f. each): 0.7 ppm
Leaching of active ingredients (in ppm) (exhaust 80° C., 1% o.w.f, 60 min, curing 170° C., curing dwell time 0.5 min): 29 ppm
Leaching of active ingredients (in ppm) (exhaust 80° C., 1% o.w.f, 60 min, curing 170° C., curing dwell time 1.0 min): 25 ppm
Leaching of active ingredients (in ppm) (exhaust 80° C., 1% o.w.f, 60 min, curing 170° C., curing dwell time 1.5 min): 22 ppm
Leaching of active ingredients (in ppm) (exhaust 80° C., 1% o.w.f, 60 min, curing 170° C., curing dwell time 2.0 min): 13 ppm
Leaching of active ingredients (in ppm) (exhaust 80° C., 1% o.w.f, 60 min, curing 170° C., curing dwell time 2.5 min): 17 ppm
Leaching of active ingredients (in ppm) (exhaust 80° C., 1% o.w.f, 60 min, curing 170° C., curing dwell time 3.0 min): 17 ppm
Leaching of active ingredients (in ppm) (exhaust 80° C., 1% o.w.f, 60 min, curing 180° C., curing dwell time 0.5 min): 23 ppm
Leaching of active ingredients (in ppm) (exhaust 80° C., 1% o.w.f, 60 min, curing 180° C., curing dwell time 1.0 min): 13 ppm
Leaching of active ingredients (in ppm) (exhaust 80° C., 1% o.w.f, 60 min, curing 180° C., curing dwell time 1.5 min): 14 ppm
Leaching of active ingredients (in ppm) (exhaust 80° C., 1% o.w.f, 60 min, curing 180° C., curing dwell time 2.0 min): 2 ppm
Leaching of active ingredients (in ppm) (exhaust 80° C., 1% o.w.f, 60 min, curing 180° C., curing dwell time 2.5 min): 12 ppm
Leaching of active ingredients (in ppm) (exhaust 80° C., 1% o.w.f, 60 min, curing 180° C., curing dwell time 3.0 min): 12 ppm
Leaching of active ingredients (in ppm) (exhaust 80° C., 1% o.w.f, 60 min, curing dwell time at 190° C. (title): 0.5 min): 19 ppm
Leaching of active ingredients (in ppm) (exhaust 80° C., 1% o.w.f, 60 min, curing dwell time at 190° C. (title): 1.0 min): 12 ppm
Leaching of active ingredients (in ppm) (exhaust 80° C., 1% o.w.f, 60 min, curing dwell time at 190° C. (title): 1.5 min): 11 ppm
Leaching of active ingredients (in ppm) (exhaust 80° C., 1% o.w.f, 60 min, curing dwell time at 190° C. (title): 2.0 min): 11 ppm
Leaching of active ingredients (in ppm) (exhaust 80° C., 1% o.w.f, 60 min, curing dwell time at 190° C. (title): 2.5 min): 25 ppm
Leaching of active ingredients (in ppm) (exhaust 80° C., 1% o.w.f, 60 min, curing dwell time at 190° C. (title): 3.0 min): 34 ppm
